Laboratory results reported in patent publication US5360796A, “Imidazo[1,2-a]pyridinylalkyl phosphonic acid compounds for treatment of neurotoxic injury” (G. D. Searle & Co., priority 1991, dated 1994).

Columns and labels:
NMDA receptor = test: NMDA-Selective Glutamate Binding Assay (L-[3H]glutamate); design: species or system rat; settings: 12.5 nM L-[3H]glutamate, synaptic plasma membranes, pH 7.4, 0-4° C., 10 min; read-out: NMDA Receptor Binding Data, Ki IC50 Binding NMDA
Method: Synaptic plasma membranes (SPM) were prepared as previously described [Monahah, J. B. and Michel, J., "Identification and Characterization of an N-methyl-D-aspartate-specific L[^3 H]glutamate Recognition Site in Synaptic Plasma Membranes, J. Neurochem., 48, 1699-1708 (1987)]. The SPM were stored at a concentration of 10-15 mg/ml in 0.32M sucrose, 0.5 mM EDTA, 1 mM MgSO4, 5 mM Tris/SO4, pH 7.4, under liquid nitrogen. The identity and purity of the subcellular fractions were confirmed by both electron microscopy and marker enzymes. Protein concentrations were determined by using a modification of the method of Lowry [Ohnishi, S. T. and Barr, J. K., "A Simplified Method of Quantitating Proteins using the Biuret and Phenol Reagents", Anal. Biochem., 86, 193-197 (1978)]. The SPM were treated identically for the [^3 H]AMPA (QUIS), [^3 H]kainate and sodium-dependent L-[^3 H]-glumatate binding assays. The SPM were thawed at room temperature, diluted twenty-fold with 50mM Tris/acetate, pH 7.4, incubated at 37° C. for 30 minutes, and centrifuged at 100,000 g for 15 minutes. The dilution, incubation, and centrifugation was repeated a total of three times. Prior to use in the NMDA-specific L-[^3 H]-glutamate binding assay the SPM were thawed, diluted twenty fold with 50 mM Tris/acetate, pH 7.4 containing 0.04% (v/v) Triton X-100, incubated for 30 minutes at 37° C. and centrifuged as described above. The Triton X-100 treated membranes were washed with 50 mM Tris/acetate, pH 7.4 and centrifuged at 100,000 g for 15 minutes a total of four times. […] The basic procedure for the receptor subclass binding assays was similar. This general method involved adding the radioligand (12.5 nM L-[^3 H] glutamate; 0.5 nM [^3 H]kainate or 10 nM [^3 H]AMPA) to the appropriate concentration of the test compound and initiating the assay by the addition of ice cold synaptic plasma membranes (0.2-0.45 mg). The binding assays were performed in 1.5 mL centrifuge tubes with the total volume adjusted to 1.0 mL. Additions of test compounds were made in 50 mM Tris/acetate, pH 7.4 and incubations were carried out at 0°-4° C. The incubation time for the NMDA and the AMPA binding assays was 10 minutes, for the kainate binding assay 60 minutes and for the sodium-dependent glutamate binding assay 15 minutes. The AMPA binding assay contained 100 mM KSCN and the sodium-dependent glutamate binding assay contained 150 mM sodium acetate in addition to the previously described reagents. To terminate the incubation, the samples were centrifuged for 15 minutes at 12,000 g and 4° C. in a Beckman Microfuge 12. The supernatant was aspirated and the pelleted membranes dissolved in Beckman BTS-450 tissue solubilizer for a minimum of 6 hours at room temperature. Beckman MP scintillation cocktail containing 7 mL/1 acetic acid was then added and the samples counted on a Beckman LS 5800 or 3801 liquid scintillation counter with automatic corrections for quenching and counting efficiency. Nonspecific binding was defined as the residual binding in the presence of either excess L-glutamate (0.1-0.4 mM), kainate (0.01 mM), or NMDA (0.5 mM), and was 15-25% of the total binding in the NMDA binding assay, 19-27% in the AMPA binding assay, 20-30% in the kainate binding assay and 10-15% in the sodium-dependent binding assay. Radioligand binding to the synaptic plasma membranes was analyzed using Scatchard and Hill transformations and the Ki values of the compounds determined using logit-log transformations. Calculations and regression analysis were performed using templates developed for Lotus 1, 2, 3 as previously described [Pullan, L. M. "Automated Radioligand Receptor Binding Analysis with Templates for Lotus", Computer Appln. Biosci., 3, 131 (1987)]. Binding results are reported in Table I for example compounds of the invention.

[1] = biological target: TCP (1-[1-(2-thienyl)cyclohexyl]piperidine) binding; test: TCP Modulation Assay; design: species or system rat; settings: 2 nM tritiated TCP, 0.05 mM L-glutamate, rat brain SPM, pH 7.4, 25° C., 60 min; read-out: TCP Ki IC50
Method: The effect on the TCP (1-[1-(2-thienyl)cyclohexyl]piperidine) binding was measured in rat brain synaptic membranes (SPM) prepared as previously described [J. B. Monahah & J. Michel; J. Neurochem. […] Prior to their use in the binding assay, frozen SPM were thawed, diluted twenty fold with 50 mM Tris/acetate (pH 7.4 containing 0.04% (v/v) Triton X-100), incubated for 30 min. at 37° C. and centrifuged at 95,000 xg for 15 min. The Triton X-100 treated SPM were washed with 5 mM Tris/HCl, pH 7.4 and centrifuged a total of six times. […] The samples were filtered through glass fiber filters (Schleicher & Schuell #32) which have been pretreated with 0.05% (v/v) polyethylenimine, washed 4 times with 2 ml of ice-cold 5 mM Tris/HCl buffer, and then counted on a Beckman LS 5800 liquid scintillation counter with automatic corrections for quenching and counting efficiency. Inhibition of TCP binding was measured as a decrease in the binding in the presence of 0.05 mM L-glutamate. Non-specific binding was defined as the residual binding in the presence of […] phencyclidine.

[2] = Motor impairment, inverted screen test
Method: Naive male CD-1 mice (20-30 grams body weight) from Charles River Laboratories, Portage Mich. served as subjects. The mice had ad libitum access to food and water prior to testing and were maintained on a 12 hour light/12 hour dark schedule with testing during the light portion of the cycle. The mice were tested for motor impairment by use of the inverted screen test approximately 5 minutes prior to anticonvulsant testing. […] Mice were placed on 13×13 cm pieces of #4 wire mesh screen which were mounted horizontally. The screens were then slowly inverted. […] PG-Tween is a 1:1 mixture of propylene glycol and Tween 80. […] There were 10 mice in each treatment group.

cGMP in cerebellum = test: Assay for Effect on cGMP Levels in Cerebellum; format: in vivo, mouse (Swiss-Webster)
Method: The purpose of this assay is to determine the extent of in vivo bioavailability and the potency as an NMDA antagonist of compound of the invention as compared to known NMDA antagonists, namely, 3(2-carboxypiperizine-4-yl)propyl-1-phosphonic acid (CPP) and cis-4-phosphonomethyl-2-piperidinecarboxylic acid (CGS 19755). Male Swiss-Webster mice (17-24 g were injected sub-cutaneously (s.c.) with compound of the invention and the known NMDA antagonist standards 30 minutes prior to sacrifice by focussed microwave irradiation. Groups consisted of 7-10 mice. Compounds of Ex. #7 was dissolved in isotonic saline and all compounds were administered in a volume of 0.2 ml per mouse. Cerebella samples were extracted in IN HCl. Hydrochloric acid in extracts of the cerebellum were freeze-dried for assay of cGMP with a commercial RIA kit (NEN). Statistics (Dunett's t-test) were performed as described previously [P. L. Wood et al., Neurochem., 19, 975-982 (1980)]. ED50 values were calculated from log-logit transformation of the dose-response data.

O=C(O)c1cn2c(CP(=O)(O)O)cccc2n1 [Example 7, 5-(phosphonomethyl)imidazo[1,2-a]pyridine-2-carboxylic acid]
Ki (NMDA receptor): 2400 nM | Ki [1]: 3200 nM | Exhibiting Motor Impairments (% of Mice) ([2]; 10 mg/kg s.c.): 30% | Exhibiting Motor Impairments (% of Mice) ([2]; 32 mg/kg s.c.): 50% | Exhibiting Motor Impairments (% of Mice) ([2]; 56 mg/kg s.c.): 70% | Exhibiting Motor Impairments (% of Mice) ([2]; 100 mg/kg s.c.): 90% | TD50 at 0.5 h ([2]; mouse, inverted screen test, sc): 24.6 mg/kg | impaired motor function (in words) ([2]; s.c.): impaired motor function in a similar dose range | ED50 (cGMP in cerebellum; Mus musculus, sc, 0.5 h, 30 min prior to sacrifice, read-out: Decrease in cGMP ED50): 18.3 mg/kg | brain bioavailability (in words) (cGMP in cerebellum; by decrease of cGMP in mouse cerebellum, s.c.): brain bioavailable | potency relative to CPP (in words) (cGMP in cerebellum; s.c., cerebellar cGMP): in the same range of potency as the known NMDA antagonist CPP
